Reference: PubChem BioAssay AID1963981 (Molecular Pharmacology Branch, DTP, NCI, 2024)

System: 354836-022-R-J1-PDC multicell spheroid viability
Test: Anticancer human tumor 354836-022-R-J1-PDC patient-derived head and neck squamous cell carcinoma cell line growth inhibition [PI3K]
Details: second compound 1 µM; first compound 0.1 µM; stronger effect = lower value
How it was run: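 We assembled tumor spheroids that included a stromal compartment of HUVEC and MSCs, then exposed them to targeted agents alone and together with PI3K pathway inhibitors. Concentration series descended by half-log from clinically achievable Cmax levels. Viability served as the endpoint.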
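Note: spheroids exposed to agents for seven days before the viability read.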

**Q.** `CNC(=O)c1ccc(N2C(=S)N(c3ccc(C#N)c(C(F)(F)F)c3)C(=O)C2(C)C)cc1F` + Cc1nc(NC(=O)N2CCCC2C(N)=O)sc1-c1ccnc(C(C)(C)C(F)(F)F)c1 was tested. Which viability, T/C did it give?
**A.** 84.5%

**Q.** For `Cn1ncc(Cl)c1-c1cc(C(=O)NC(CN)Cc2cccc(F)c2)sc1Cl` (configuration not stated) + CC(Nc1ncnc2nc[nH]c12)c1cc2cccc(Cl)c2c(=O)n1-c1ccccc1, which viability, T/C is on record?
**A.** 67%

Same assay, conditions: second compound 1 µM; first compound 0.316 µM; stronger effect = lower value

**Q.** For `C#Cc1c(F)ccc2cc(O)cc(-c3ncc4c(N5CC6CCC(C5)N6)nc(OCC56CCCN5CC(F)C6)nc4c3F)c12` (configuration not stated) + COc1c(OCCCN2CCOCC2)ccc2c3n(c(=NC(=O)c4cnc(N)nc4)nc12)CCN3, which viability, T/C is on record?
**A.** 1.66%

**Q.** `CC(Cn1ccc(-c2ccc(C#N)c(Cl)c2)n1)NC(=O)c1cc(C(C)O)[nH]n1` (configuration not stated) + CC(Nc1ccc2c(c1)OCCn1cc(N3C(=O)OCC3C(F)F)nc1-2)C(N)=O was tested. Which viability, T/C did it give?
**A.** 69.5%

**Q.** For `CNC(=O)c1ccc(N2C(=S)N(c3ccc(C#N)c(C(F)(F)F)c3)C(=O)C2(C)C)cc1F` + Cc1nc(NC(=O)N2CCCC2C(N)=O)sc1-c1ccnc(C(C)(C)C(F)(F)F)c1, which viability, T/C is on record?
**A.** 76.3%

**Q.** For `Cn1ncc(Cl)c1-c1cc(C(=O)NC(CN)Cc2cccc(F)c2)sc1Cl` (configuration not stated) + CC(Nc1ncnc2nc[nH]c12)c1cc2cccc(Cl)c2c(=O)n1-c1ccccc1, which viability, T/C is on record?
**A.** 29.6%

Same assay, conditions: second compound 1 µM; first compound 1 µM; stronger effect = lower value

**Q.** Which viability, T/C does the source give for `C#Cc1c(F)ccc2cc(O)cc(-c3ncc4c(N5CC6CCC(C5)N6)nc(OCC56CCCN5CC(F)C6)nc4c3F)c12` (configuration not stated) + COc1c(OCCCN2CCOCC2)ccc2c3n(c(=NC(=O)c4cnc(N)nc4)nc12)CCN3 here?
**A.** 1.78%

**Q.** How did the viability, T/C turn out when `CC(Cn1ccc(-c2ccc(C#N)c(Cl)c2)n1)NC(=O)c1cc(C(C)O)[nH]n1` (configuration not stated) + CC(Nc1ccc2c(c1)OCCn1cc(N3C(=O)OCC3C(F)F)nc1-2)C(N)=O was run?
**A.** 64.3%

**Q.** For `CNC(=O)c1ccc(N2C(=S)N(c3ccc(C#N)c(C(F)(F)F)c3)C(=O)C2(C)C)cc1F` + Cc1nc(NC(=O)N2CCCC2C(N)=O)sc1-c1ccnc(C(C)(C)C(F)(F)F)c1, which viability, T/C is on record?
**A.** 98.7%

**Q.** `Cn1ncc(Cl)c1-c1cc(C(=O)NC(CN)Cc2cccc(F)c2)sc1Cl` (configuration not stated) + CC(Nc1ncnc2nc[nH]c12)c1cc2cccc(Cl)c2c(=O)n1-c1ccccc1 was tested. Which viability, T/C did it give?
**A.** 19.3%

Same assay, conditions: second compound 1 µM; first compound 3.16 µM; stronger effect = lower value

**Q.** Which viability, T/C does the source give for `C#Cc1c(F)ccc2cc(O)cc(-c3ncc4c(N5CC6CCC(C5)N6)nc(OCC56CCCN5CC(F)C6)nc4c3F)c12` (configuration not stated) + COc1c(OCCCN2CCOCC2)ccc2c3n(c(=NC(=O)c4cnc(N)nc4)nc12)CCN3 here?
**A.** 1.73%

**Q.** How did the viability, T/C turn out when `CC(Cn1ccc(-c2ccc(C#N)c(Cl)c2)n1)NC(=O)c1cc(C(C)O)[nH]n1` (configuration not stated) + CC(Nc1ccc2c(c1)OCCn1cc(N3C(=O)OCC3C(F)F)nc1-2)C(N)=O was run?
**A.** 61.4%

**Q.** `CNC(=O)c1ccc(N2C(=S)N(c3ccc(C#N)c(C(F)(F)F)c3)C(=O)C2(C)C)cc1F` + Cc1nc(NC(=O)N2CCCC2C(N)=O)sc1-c1ccnc(C(C)(C)C(F)(F)F)c1 was tested. Which viability, T/C did it give?
**A.** 87%

**Q.** Which viability, T/C does the source give for `Cn1ncc(Cl)c1-c1cc(C(=O)NC(CN)Cc2cccc(F)c2)sc1Cl` (configuration not stated) + CC(Nc1ncnc2nc[nH]c12)c1cc2cccc(Cl)c2c(=O)n1-c1ccccc1 here?
**A.** 5.53%

Same assay, conditions: second compound 1 µM; first compound 10 µM; stronger effect = lower value

**Q.** Which viability, T/C does the source give for `C#Cc1c(F)ccc2cc(O)cc(-c3ncc4c(N5CC6CCC(C5)N6)nc(OCC56CCCN5CC(F)C6)nc4c3F)c12` (configuration not stated) + COc1c(OCCCN2CCOCC2)ccc2c3n(c(=NC(=O)c4cnc(N)nc4)nc12)CCN3 here?
**A.** 0.66%

**Q.** For `CC(Cn1ccc(-c2ccc(C#N)c(Cl)c2)n1)NC(=O)c1cc(C(C)O)[nH]n1` (configuration not stated) + CC(Nc1ccc2c(c1)OCCn1cc(N3C(=O)OCC3C(F)F)nc1-2)C(N)=O, which viability, T/C is on record?
**A.** 48%

**Q.** How did the viability, T/C turn out when `CNC(=O)c1ccc(N2C(=S)N(c3ccc(C#N)c(C(F)(F)F)c3)C(=O)C2(C)C)cc1F` + Cc1nc(NC(=O)N2CCCC2C(N)=O)sc1-c1ccnc(C(C)(C)C(F)(F)F)c1 was run?
**A.** 82.4%

**Q.** `Cn1ncc(Cl)c1-c1cc(C(=O)NC(CN)Cc2cccc(F)c2)sc1Cl` (configuration not stated) + CC(Nc1ncnc2nc[nH]c12)c1cc2cccc(Cl)c2c(=O)n1-c1ccccc1 was tested. Which viability, T/C did it give?
**A.** 1.8%

Same assay, conditions: second compound 3.16 µM; first compound 0.0316 µM; stronger effect = lower value

**Q.** For `CNC(=O)c1ccc(N2C(=S)N(c3ccc(C#N)c(C(F)(F)F)c3)C(=O)C2(C)C)cc1F` + Cc1nc(NC(=O)N2CCCC2C(N)=O)sc1-c1ccnc(C(C)(C)C(F)(F)F)c1, which viability, T/C is on record?
**A.** 54.5%

**Q.** How did the viability, T/C turn out when `Cn1ncc(Cl)c1-c1cc(C(=O)NC(CN)Cc2cccc(F)c2)sc1Cl` (configuration not stated) + CC(Nc1ncnc2nc[nH]c12)c1cc2cccc(Cl)c2c(=O)n1-c1ccccc1 was run?
**A.** 75.6%

Same assay, conditions: second compound 3.16 µM; first compound 0.1 µM; stronger effect = lower value

**Q.** Which viability, T/C does the source give for `CNC(=O)c1ccc(N2C(=S)N(c3ccc(C#N)c(C(F)(F)F)c3)C(=O)C2(C)C)cc1F` + Cc1nc(NC(=O)N2CCCC2C(N)=O)sc1-c1ccnc(C(C)(C)C(F)(F)F)c1 here?
**A.** 71.1%

**Q.** How did the viability, T/C turn out when `Cn1ncc(Cl)c1-c1cc(C(=O)NC(CN)Cc2cccc(F)c2)sc1Cl` (configuration not stated) + CC(Nc1ncnc2nc[nH]c12)c1cc2cccc(Cl)c2c(=O)n1-c1ccccc1 was run?
**A.** 68.1%

Same assay, conditions: second compound 3.16 µM; first compound 0.316 µM; stronger effect = lower value

**Q.** With `CNC(=O)c1ccc(N2C(=S)N(c3ccc(C#N)c(C(F)(F)F)c3)C(=O)C2(C)C)cc1F` + Cc1nc(NC(=O)N2CCCC2C(N)=O)sc1-c1ccnc(C(C)(C)C(F)(F)F)c1 as the compound, how does the viability, T/C read?
**A.** 63.3%

**Q.** With `Cn1ncc(Cl)c1-c1cc(C(=O)NC(CN)Cc2cccc(F)c2)sc1Cl` (configuration not stated) + CC(Nc1ncnc2nc[nH]c12)c1cc2cccc(Cl)c2c(=O)n1-c1ccccc1 as the compound, how does the viability, T/C read?
**A.** 39.5%

Same assay, conditions: second compound 3.16 µM; first compound 1 µM; stronger effect = lower value

**Q.** Which viability, T/C does the source give for `CNC(=O)c1ccc(N2C(=S)N(c3ccc(C#N)c(C(F)(F)F)c3)C(=O)C2(C)C)cc1F` + Cc1nc(NC(=O)N2CCCC2C(N)=O)sc1-c1ccnc(C(C)(C)C(F)(F)F)c1 here?
**A.** 71.3%

**Q.** With `Cn1ncc(Cl)c1-c1cc(C(=O)NC(CN)Cc2cccc(F)c2)sc1Cl` (configuration not stated) + CC(Nc1ncnc2nc[nH]c12)c1cc2cccc(Cl)c2c(=O)n1-c1ccccc1 as the compound, how does the viability, T/C read?
**A.** 20.9%

Same assay, conditions: second compound 3.16 µM; first compound 3.16 µM; stronger effect = lower value

**Q.** For `CNC(=O)c1ccc(N2C(=S)N(c3ccc(C#N)c(C(F)(F)F)c3)C(=O)C2(C)C)cc1F` + Cc1nc(NC(=O)N2CCCC2C(N)=O)sc1-c1ccnc(C(C)(C)C(F)(F)F)c1, which viability, T/C is on record?
**A.** 68%

**Q.** `Cn1ncc(Cl)c1-c1cc(C(=O)NC(CN)Cc2cccc(F)c2)sc1Cl` (configuration not stated) + CC(Nc1ncnc2nc[nH]c12)c1cc2cccc(Cl)c2c(=O)n1-c1ccccc1 was tested. Which viability, T/C did it give?
**A.** 7.18%

Same assay, conditions: second compound 3.16 µM; first compound 10 µM; stronger effect = lower value

**Q.** With `CNC(=O)c1ccc(N2C(=S)N(c3ccc(C#N)c(C(F)(F)F)c3)C(=O)C2(C)C)cc1F` + Cc1nc(NC(=O)N2CCCC2C(N)=O)sc1-c1ccnc(C(C)(C)C(F)(F)F)c1 as the compound, how does the viability, T/C read?
**A.** 72.1%

**Q.** With `Cn1ncc(Cl)c1-c1cc(C(=O)NC(CN)Cc2cccc(F)c2)sc1Cl` (configuration not stated) + CC(Nc1ncnc2nc[nH]c12)c1cc2cccc(Cl)c2c(=O)n1-c1ccccc1 as the compound, how does the viability, T/C read?
**A.** 2.1%

Same assay, conditions: second compound 10 µM; first compound 0.0316 µM; stronger effect = lower value

**Q.** `CNC(=O)c1ccc(N2C(=S)N(c3ccc(C#N)c(C(F)(F)F)c3)C(=O)C2(C)C)cc1F` + Cc1nc(NC(=O)N2CCCC2C(N)=O)sc1-c1ccnc(C(C)(C)C(F)(F)F)c1 was tested. Which viability, T/C did it give?
**A.** 35.1%

**Q.** With `Cn1ncc(Cl)c1-c1cc(C(=O)NC(CN)Cc2cccc(F)c2)sc1Cl` (configuration not stated) + CC(Nc1ncnc2nc[nH]c12)c1cc2cccc(Cl)c2c(=O)n1-c1ccccc1 as the compound, how does the viability, T/C read?
**A.** 70.8%

Same assay, conditions: second compound 10 µM; first compound 0.1 µM; stronger effect = lower value

**Q.** `CNC(=O)c1ccc(N2C(=S)N(c3ccc(C#N)c(C(F)(F)F)c3)C(=O)C2(C)C)cc1F` + Cc1nc(NC(=O)N2CCCC2C(N)=O)sc1-c1ccnc(C(C)(C)C(F)(F)F)c1 was tested. Which viability, T/C did it give?
**A.** 35%

**Q.** For `Cn1ncc(Cl)c1-c1cc(C(=O)NC(CN)Cc2cccc(F)c2)sc1Cl` (configuration not stated) + CC(Nc1ncnc2nc[nH]c12)c1cc2cccc(Cl)c2c(=O)n1-c1ccccc1, which viability, T/C is on record?
**A.** 59.7%

Same assay, conditions: second compound 10 µM; first compound 0.316 µM; stronger effect = lower value

**Q.** For `CNC(=O)c1ccc(N2C(=S)N(c3ccc(C#N)c(C(F)(F)F)c3)C(=O)C2(C)C)cc1F` + Cc1nc(NC(=O)N2CCCC2C(N)=O)sc1-c1ccnc(C(C)(C)C(F)(F)F)c1, which viability, T/C is on record?
**A.** 35.7%

**Q.** For `Cn1ncc(Cl)c1-c1cc(C(=O)NC(CN)Cc2cccc(F)c2)sc1Cl` (configuration not stated) + CC(Nc1ncnc2nc[nH]c12)c1cc2cccc(Cl)c2c(=O)n1-c1ccccc1, which viability, T/C is on record?
**A.** 31.8%

Same assay, conditions: second compound 10 µM; first compound 1 µM; stronger effect = lower value

**Q.** Which viability, T/C does the source give for `CNC(=O)c1ccc(N2C(=S)N(c3ccc(C#N)c(C(F)(F)F)c3)C(=O)C2(C)C)cc1F` + Cc1nc(NC(=O)N2CCCC2C(N)=O)sc1-c1ccnc(C(C)(C)C(F)(F)F)c1 here?
**A.** 39.8%

**Q.** `Cn1ncc(Cl)c1-c1cc(C(=O)NC(CN)Cc2cccc(F)c2)sc1Cl` (configuration not stated) + CC(Nc1ncnc2nc[nH]c12)c1cc2cccc(Cl)c2c(=O)n1-c1ccccc1 was tested. Which viability, T/C did it give?
**A.** 18.9%

Same assay, conditions: second compound 10 µM; first compound 3.16 µM; stronger effect = lower value

**Q.** Which viability, T/C does the source give for `CNC(=O)c1ccc(N2C(=S)N(c3ccc(C#N)c(C(F)(F)F)c3)C(=O)C2(C)C)cc1F` + Cc1nc(NC(=O)N2CCCC2C(N)=O)sc1-c1ccnc(C(C)(C)C(F)(F)F)c1 here?
**A.** 48.9%

**Q.** Which viability, T/C does the source give for `Cn1ncc(Cl)c1-c1cc(C(=O)NC(CN)Cc2cccc(F)c2)sc1Cl` (configuration not stated) + CC(Nc1ncnc2nc[nH]c12)c1cc2cccc(Cl)c2c(=O)n1-c1ccccc1 here?
**A.** 8.1%

Same assay, conditions: second compound 10 µM; first compound 10 µM; stronger effect = lower value

**Q.** `CNC(=O)c1ccc(N2C(=S)N(c3ccc(C#N)c(C(F)(F)F)c3)C(=O)C2(C)C)cc1F` + Cc1nc(NC(=O)N2CCCC2C(N)=O)sc1-c1ccnc(C(C)(C)C(F)(F)F)c1 was tested. Which viability, T/C did it give?
**A.** 37.5%

**Q.** With `Cn1ncc(Cl)c1-c1cc(C(=O)NC(CN)Cc2cccc(F)c2)sc1Cl` (configuration not stated) + CC(Nc1ncnc2nc[nH]c12)c1cc2cccc(Cl)c2c(=O)n1-c1ccccc1 as the compound, how does the viability, T/C read?
**A.** 2.22%
